Experiment [1] concerns HL-60 human leukemia. The experiment is described as follows: MTT in vitro cytotoxicity. The following applies: read-out: IC50 value Leukemia HL-60.
The test system of experiment [2] is U-937 lymphoma. The experiment is described as follows: MTT in vitro cytotoxicity. The note with it: read-out: IC50 value Lymphoma U-937.
The subject of experiment [3] is S-180. Put plainly: In vivo anticancer activity: increase in median survival time. Also noted: species or system Swiss albino male mice.
Experiment [4] has as its system SW-620. The experiment is described as follows: SRB in vitro cytotoxicity, human tumor cell line. Format: cell-based. The note with it: 10^-5 M, Colon: SW-620, read-out: growth inhibition. As for the experimental part:
(§1) Compounds 3a-g were screened by sulforhodamine-B (SRB) semi-automated assay in a battery of cell lines. […] A., et. al. (1991); Feasibility high flux anticancer screen utilizing diverse panel of human tumor cell lines in culture. J Natl Cancer Inst. 83, 757-766]. Each compound was tested in triplicate sets of experiments at 10^-4 to 10^-6 M concentrations (Table 4).
(§2) A stock solution of 2 x 10^-2M was prepared in DMSO. The stock solutions were serially diluted to obtain working test solutions with complete growth medium (RPMI-1640 medium with 2mM glutamine, 100µg/ml streptomycin, pH 7.4, sterilized by filtration and supplemented with 10% fetal bovine serum and 100 units/ml penicillin before use) containing 50 µg/ml of gentamycin to obtain working test solutions. The working test solutions were not filtered/ sterilized but microbial contamination was controlled by addition of gentamycin in complete growth medium used for dilution of stock solutions to prepare working test solutions.
(§3) In vitro cytotoxicity against human cancer cell lines was determined^2 [Monk. A., et. al. (1991); Feasibility high flux anticancer screen utilizing diverse panel of human tumor cell lines in culture. J Natl Cancer Inst. 83, 757-766] using 96-well tissue culture plates. The cells were grown in tissue culture flasks in complete growth medium at 37°C in an atmosphere of 5% CO2 and 95% relative humidity in a carbon dioxide incubator. The cell suspension of required cell density (1-2 lakhs/ml) depending on the mass doubling time of cell lines was prepared in complete growth medium for determination of cytotoxicity. The aliquots of 100 µl of cell suspension were added to each well on a 96-well tissue culture plate. The blank wells contained complete medium in place of cell suspension. Simultaneously, control experiments with positive controls containing known anticancer agents were carried out. Cells were incubated for 24 hr.
(§4) The test materials (100 µl in each well) were added after 24-hours to the wells containing cell suspension and blank wells. The cells were allowed to grow in presence of test material by further incubating the plates for 48 hours. At the end of incubation period the cell growth was stopped by gently layering trichloroacetic acid (50% TCA, 50µl/well) on top of the medium in all the wells. The plates were incubated at 4°C for 1 hr. The plates were washed five times with distilled water to remove TCA, growth medium, low molecular weight metabolites, serum proteins etc. and air-dried.
(§5) The cell growth was measured^3 [Skehan, P, Storeng, R Scudiero, D, Monks, A, Mcmahon, J, Vistica, D, Warren, J.T., Bokesch, H., Kenney, S., Boyd, M.R. (1990). New colorimetric cytotoxicity assay for anti-cancer drug screening. J Natl Cancer Inst. 82: 1107-12] by staining with Sulphorhodamine B. Sulphorhodamine B (SRB, 0.4% in 1% acetic acid, 100 µl/well) was added to each well and plates were allowed to stand at room temperature for 30 minutes. The plates were washed with 1% acetic acid four times and then dried. Tris-HCl buffer (0.01 M, pH 10.5, 100 µl/well) was added to each well to solublise the dye. The plates were shaken gently for 10 minutes on a shaker and the optical density was recorded on ELISA reader at 540 nm. The cell growth was determined by subtracting mean OD value of respective blank from the mean OD value of experimental set. Percent growth in presence of test material was calculated considering the growth in absence of any test material as 100% and in turn percent growth inhibition in presence of test material was calculated. All the experiments were carried out in quadruplicate.

The subject of experiment [5] is HCT-15. The experiment is described as follows: SRB in vitro cytotoxicity, human tumor cell line. The note with it: 10^-5 M, Colon: HCT-15, read-out: growth inhibition. Format: cell-based. As for the experimental part:
as §1, §2, §3, §4, §5

Experiment [6] has as its system 502713. The experiment is described as follows: SRB in vitro cytotoxicity, human tumor cell line. Format: cell-based. The following applies: 10^-5 M, Colon: 502713, read-out: growth inhibition. How it is done: as §1, §2, §3, §4, §5
Experiment [7] relates to IMR-32. The experiment is described as follows: SRB in vitro cytotoxicity, human tumor cell line. In kind it is cell-based. The following applies: 10^-5 M, Neuroblastoma: IMR-32, read-out: growth inhibition. As for the experimental part: as §1, §2, §3, §4, §5
The test system of experiment [8] is HL-60 cells. Put plainly: Annexin V-FITC/PI flow cytometric analysis of apoptosis. In kind it is cell-based, human. The note with it: 24 h. As for the experimental part:
Induction of apoptosis in vitro by Compound 3b and 3f was further determined in HL-60 cells by flow cytometric assay using an Annexin V-FITC Apoptosis Detection Kit (BD Biosciences Pharmingen, San Diego, USA). Camptothecin was included in the study for comparison. Exponentially growing HL-60 cells in complete RPMI-1640 media (100 µl of 5×10^6) were plated in six well plates. 10 µl of each Compound in DMSO (5 and 10 µM concentrations) was added to the wells followed by the addition of required media (total volume 1ml). Plates were incubated at 37°C for 24 h. The cells were centrifuged at room temperature at 1500 rpm for 5 min. The pellet was washed twice with cold PBS and was re-suspended in the binding buffer (1X, 100µl) provided in the Kit. The cells were stained with Annexin V-FITC (5 µl) and Propidium Iodide [PI] (5µl) and incubated for 15 min in the dark at 25°C. Next 400µl of binding buffer was added to each tube and analyzed on a FACScan flow cytometer (Becton Dickinson, Mountainview, CA) using Cell Quest software. Cells stained with both Annexin-V-FITC and PI, containing DMSO as vehicle was used as stained control. Cells that were annexin^+ /Pr [Lower right quadrant (LR)] and annexin^+/PI^+ [Upper right quadrant (UR)] were considered as early apoptotic and late apoptotic respectively.
(In general: In flow cytometry, cells or beads pass a laser one at a time.)

Experiment [9] concerns S-180 cells. The experiment is described as follows: 3H-thymidine and 3H-uridine incorporation in vitro (DNA and RNA synthesis).
Experiment [10] concerns MOLT-4 cells. The experiment is described as follows: Annexin V-FITC/PI flow cytometric analysis of apoptosis. Format: cell-based, Human. The following applies: 5µM, 6 hrs. As for the experimental part: Events of apoptosis were analyzed using Annexin V-FITC Apoptosis Detection Kit (A 2214 Sigma Aldrich, USA). Human leukemia Cells (MOLT-4, 1x10^6 cells/ml) in 6-well plate were treated with Compound 3f (3 and 5µg/ml), camptothecin (5µM) and incubated for 6 hrs. After incubation, the cells were centrifuged, rinsed with PBS twice and re-suspended in binding buffer (10 mM HEPES/NaOH, pH 7.5 containing 0.14M NaCl and 25 mM CaCl2). An aliquot (500 µl) of suspension was stained with of Annexin V-FITC (5 µl) and Propidium Iodide (10 µl). The cells were stored for 10 minutes at room temperature in the dark and then analyzed by BD-LSR flow cytometer (Becton Dickinson, USA) at two wavelengths to measure fluorescence for of Annexin V & PI binding at 515 and 639 nm.

In experiment [11] the test system is MOLT-4 cells. Put plainly: Flow cytometric DNA cell cycle analysis (sub-G1 fraction). In kind it is cell-based, Human. The following applies: camptothecin 1µM, 3 hrs. As for the experimental part: Effect of DNA content by cell cycle phase distribution was assessed using MOLT-4 cells. […] The incubation period was 3 hrs in case of camptothecin and 24 hrs. in rest of the treatments. The cells were then washed twice with ice-cold PBS, harvested, fixed with ice-cold PBS in 70% ethanol, and stored at -20 °C for 30 min. After fixation, the cells were incubated with RNase A (0.1 mg/ml) at 37°C for 30 min, stained with propidium iodide (50 µg/ml) for 30 min on ice in dark, and then measured for DNA content using BD-LSR Flow cytometer (Becton Dickinson, USA) equipped with electronic doublet, discrimination capability using blue (488nm) excitation from argon laser. Data were collected in list mode on 10,000 events for FL2-A vs. FL2-W and analyzed using Mod Fit 2.0 software (Fig 4). […] The sub-G1 fractions for control and camptothecin were 0.64 (Fig. 4A) and 11.92 % (Fig. 4B).

Where [12] appears, read: S-180, 30 mg/kg i.p., 7 injns., days 1-7.
The mark [13] stands for this setting: S-180, 60 mg/kg i.p., 7 injns., days 1-7.
The mark [14] stands for this setting: S-180, 60 mg/kg i.p., 7 injns., days 5-11.
[15] abbreviates: S-180, 20 mg/kg i.p., 7 injns., days 1-7.
Where [16] appears, read: S-180, 6 mg/kg i.p., 7 injns., days 1-7.
Where [17] appears, read: S-180, 0.5 mg/kg i.p., 7 injns., days 1-7.
[18] abbreviates: S-180, 1 mg/kg i.p., 7 injns., days 1-7.

Like-named read-outs stand apart in the source and are kept apart here.

By IC50 is commonly meant the concentration that gives 50% inhibition. As to `O=NN(CCCl)C(=O)NCCCl` [BCNU, Bis (2-chloroethyl-nitrosourea)], the half-inhibitory concentration (IC50) came to 30.5 µM in [1] (MTT, 96 h) and 12.3 µM in [2] (MTT, 96 h).

As to `N.N.[Cl][Pt][Cl]` [Cis-Platinum], the concentration for half-maximal inhibition (IC50) in [1] (MTT, 96 h) was found to be 7 µM; in [2] (MTT, 96 h), 3.2 µM.

For orientation: inhibition means the relative decrease from the control value, in per cent. For `O=C1c2cccc3c([N+](=O)[O-])ccc(c23)C(=O)N1CCCl` [Compound 3b, 6-Nitro-2-[2-(Chloroethyl)]-1H-benz[de]isoquinoline-1,3-dione], the “MST” value turned out to be 20.5 days in experiment [3] (S-180, 40 mg/kg i.p., 7 injns., days 1-7) and 23.0 days in experiment [3] (S-180, 80 mg/kg i.p., 7 injns., days 1-7). In addition, the inhibition at 10 µM in experiment [4], in experiment [5], in experiment [6] and in experiment [7] was over 50% throughout. Moreover, the “early apoptotic cells (Annexin V^+/PI^-), LR” value (from here on “early apoptotic cells”) was determined as 4.5% in experiment [8] (5 µM) and 15.3% in [8] (10 µM). Moreover, the “late apoptotic cells (Annexin V^+/PI^+), UR” value (“late apoptotic cells” below) stood at 5.2% in experiment [8] (5 µM) and 33.5% in experiment [8] (10 µM). Besides, the “total apoptotic cells (apoptotic cell population)” value is listed as 9.7% in experiment [8] (5 µM) and 48.8% in experiment [8] (10 µM). Further, the concentration for half-maximal inhibition (IC50) in experiment [1] (Homo sapiens, HL-60, 96 h) worked out at 0.8 µM; in experiment [2] (Homo sapiens, U-937, 96 h), 0.66 µM.

Consider `O=C1c2cccc3cc([N+](=O)[O-])cc(c23)C(=O)N1CCCCl` [Compound 3g, 5-Nitro-2-[3-(Chloropropyl)]-1H-benz[de]isoquinoline-1,3-dione], for which the “MST” value came to 25.5 days in [3] (setting [12]), 24.0 days in experiment [3] (setting [13]) and 25.0 days in experiment [3] (setting [14]). In addition, the T/C % in experiment [3] (setting [12]) worked out at 106%; in experiment [3] (setting [13]), 129%; in experiment [3] (setting [14]), 104%.

Take `O=c1[nH]cc(F)c(=O)[nH]1` [Compound 5-FU, 5-fluorouracil, reference compound]: in [3] (setting [15]), the “MST” value came out at 53.5 days, the “Survivors > 60 days” value amounted to 3 and the T/C % was found to be 233%. This molecule also gave a T/C % in [3] (mouse, in vivo) of 233. Besides, the IC50 in [1] (Homo sapiens, HL-60, 96 h) was 266 µM. In experiment [2] (Homo sapiens, U-937, 96 h), the IC50 was determined as 4.7 µM.

Regarding `O=P1(N(CCCl)CCCl)NCCCO1` (stereo not shown) [Cyclophosphamide, reference compound], in experiment [3] (setting [16]), the “MST” value came to 33.0 days and the T/C % stood at 143%.

For the molecule `NC(=O)NO` [Hydroxyurea], the IC50 in [1] (Homo sapiens, HL-60, 96 h) stood at 204 µM; in experiment [2] (Homo sapiens, U-937, 96 h) it was 115 µM.

For `CN(C)CCN1C(=O)c2cccc3cc([N+](=O)[O-])cc(c23)C1=O` [Mitonafide, reference compound], in [3] (setting [17]), the “MST” value was 36.5 days, the “Survivors > 60 days” value was determined as 1 and the T/C % worked out at 187%. In addition, in experiment [3] (setting [18]), the “MST” value is recorded as 25.0 days and the T/C % worked out at 128%. The inhibition at 8 µM in [9] (Mus musculus, S-180, read-out: DNA synthesis inhibition (3H-thymidine uptake)) amounted to 93%. Besides, the “RNA synthesis inhibition (3H-uridine uptake)” value in [9] (S-180 cells, 8 µM, 1 hr incubation, with respect to control) stood at 92%.

Consider `CC[C@@]1(O)C(=O)OCc2c1cc1n(c2=O)Cc2cc3ccccc3nc2-1` [camptothecin, reference compound], for which, in experiment [8] (5 µM), the “early apoptotic cells” value came out at 7.79%; the “late apoptotic cells” value is 5.46%; the “total apoptotic cells (apoptotic cell population)” value is recorded as 13.3%. In [8] (10 µM), the “early apoptotic cells” value is given as 10.52%; the “late apoptotic cells” value came to 5.30%; the “total apoptotic cells (apoptotic cell population)” value was determined as 15.8%. Also, the total apoptotic cells in experiment [10] is 8.83%. Besides, the sub-G1 fraction in experiment [11] is listed as 11.92%.
